Measured values published in patent publication US10238631B2, “Sesquiterpene derivatives and their use in inflammation or cancer treatment” (Academia Sinica, priority 2014, dated 2019).
Read-outs that look alike come from different tables or passages of the source.

Tests used:
HTB-68 (NRAS mutation) = test: MTT cell viability assay, HTB-68 melanoma; type: cell-based, human; conditions: 24 h
Outline: (§1)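 Viability is determined colorimetrically with MTT after a 24 h to 72 h compound treatment. Vehicle wells containing 0.5% DMSO define 100% viability, and treated OD570 values are expressed relative to them.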

[1] = test system: NES-SA uterus cancer cell line; test: MTT cell viability assay, NES-SA; type: cell-based; conditions: 24 h
Procedure: (§2) Normal or cancer cells (2×10^3 to 1×10^4 cells/well) were seeded in 96-well plate for overnight and treated with different compounds for 24 h to 72 h. Cells growth were determined by MTT-based colorimetric assays according to. Viability of the test cells treated with vehicle (0.5% DMSO) only was defined as 100% viable. Survival of cells after treatment with DETDs was calculated using the following formula: viable cell number (%)=OD570 (treated cell culture)/OD570 (vehicle control)×100.
(§3) Based on toxicity results of DET and DETDs on different breast cancer and melanoma cell lines, we selected DETD-6, -32, -35 and -39, under the consideration of structure activity relationship for evaluating their suppression effect against other cancer types of cell line with indicated tumor origin in Table 5. […] The cells were treated with compounds for 24 h and then subjected to MTT assays.

[2] = test system: RAW264.7 (normal macrophage); test: MTT cell viability assay, RAW264.7 macrophages; type: cell-based, mouse; conditions: for IC50: Mus musculus, RAW264.7, 24 h
Outline: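 RAW264.7 macrophages (2×10^5 cells/well) pretreated with compounds 1 h, then incubated 24 h with or without 100 ng/μL LPS. Viability by MTT colorimetric assay run in parallel with Griess nitrite measurement.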

[3] = test system: SK-N-MC neuroepithelioma line; test: MTT cell viability assay, SK-N-MC; type: cell-based; conditions: Homo sapiens, 24 h
Procedure: as §2, §3

B16-F10 (NRAS mutation) = test: MTT cell viability assay, B16-F10 melanoma; type: cell-based; conditions: Mus musculus, B16-F10, 24 h
Outline: as §1

[4] = test system: MDA-MB-231 cell migration; test: Boyden chamber migration assay; type: cell-based, human; conditions: 24 h; for reduction of cell migration vs vehicle control: higher concentrations (DET 4 μM, DETD-35 2.5 μM, PTX 4 μM); for suppression of cell migration vs vehicle control: lower concentrations (DET 2.5 μM, DETD-35 1.25 μM, PTX 2.5 μM)
Procedure: To test the anti-migratory and anti-invasive effect of DET. DETD-35 and PTX. Boyden chambers assay was carried out. The lower well of the chamber (6.5 mm diameter, […]; Costar. Cambridge, Mass., USA) was added 10% fetal bovine serum (FBS) as a chemoattractant and filled with DMEM culture medium containing vehicle (DMSO, 0.05%), DET (2.5 and 4 μM). DETD-35 (1.25 and 2.5 μM), or PTX (2.5 and 4 μM). MDA-MB-231 cells were placed into the upper chamber (5×10^4 cells per insert) with the medium containing 0.1% FBS. After 24 h incubation at 37° C. in a 5% CO2 atmosphere, non-migrating cells were scraped from the upper surface of the membrane using a cotton swab, and the migrated cells remaining in the well were fixed and stained with DAPI solution (4,6-diamidino-2-phenylindole, 1 μg/ml). The migrating cells were counted in three fields at 20× original magnifications by inverted fluorescence microscopy. To test the anti-invasive effect of the compounds, 8-μm filters were pre-coating with Matrigel (30 μg per filter) and incubated at 37° C. for 2 h, then followed the protocol of migration assay descried about.

[5] = test system: A375 human melanoma tumor; test: A375 melanoma xenograft model in NOD/SCID mice; type: in vivo, mouse; conditions: 20 mg/kg i.p.; PLX4032 every day, DET and DETD-35 every two days
Procedure: A375 and A375-R melanoma cells (3×10^6) were injected subcutaneously to the flanks of the six weeks old NOD/SCID mice. One week after the inoculation, the mice were randomized into treated groups (n=8 per group) and the treatments were started. Body weight and tumor volume of the mice were recorded every three days using formula a×b^2×0.5, where a and b represented the larger and smaller tumor diameters.
We used A375 human melanoma xenograft model to evaluate the in vivo bioefficacy of DET. DETD-35, PLX4032 and compound drug combination. […] For single compound or drug treatment group, PLX4032 was administered i.p. every day and DET and DETD-35 were administered i.p. every two days. For combination treatment, PLX4032 was administered every two days while DET and DETD-35 were administered every four days. […] Compound-drug combinational treatments were carried out with alternative administration of DET (20 mg/kg) or DETD-35 (20 mg/kg) and PLX4032 (20 mg/kg) by which DET or DETD-35 and PLX4032 treatment frequency were only half of the single compound or drug administration alone.

[6] = test system: TS/A (ER+, Her2−) murine mammary cancer cells; test: MTT cell viability assay, TS/A cells; type: cell-based; conditions: Mus musculus
Outline: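 Viability is scored colorimetrically by MTT after cells, plated at 2×10^3 to 1×10^4 per well the night before, receive compounds for 24 h to 72 h; 0.5% DMSO-treated wells define 100%.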

[7] = test system: PC6 lung cancer cell line; test: MTT cell viability assay, PC6; type: cell-based; conditions: 24 h
Procedure: as §2, §3

[8] = test system: LPS-induced nitric oxide (NO) production in RAW 264.7 cells; test: Nitric oxide production in LPS-stimulated macrophages (Griess); type: cell-based, mouse; conditions: for IC50: Mus musculus, LPS-stimulated RAW264.7, nitrite 24 h after LPS
Outline: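 RAW 264.7 macrophages (2×10^5 cells/well) were pretreated with compound for 1 h and then stimulated with 100 ng/μL LPS for 24 h. NO was measured as nitrite in the medium by the Griess reaction. Viability was checked in parallel by MTT.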

[9] = 24 h, read-out: IC50 on cell viability, B16-F10 (NRAS mutation)
[10] = Table 5, 24 h, read-out: IC50 viability B16-F10 (mouse) (Skin)
[11] = 24 h, read-out: IC50 on cell viability, TS/A (ER+, Her2−)
[12] = Table 5, 24 h, read-out: IC50 viability TS/A (mouse) (Breast)

Compound	IC50 (HTB-68 (NRAS mutation)) [µM]	IC50 (HTB-68 (NRAS mutation); Homo sapiens) [µM]	IC50 [1] [µM]	IC50 [2] [µM]	IC50 [3] [µM]	IC50 (B16-F10 (NRAS mutation); [9]) [µM]	IC50 (B16-F10 (NRAS mutation); [10]) [µM]	reduction of cell migration vs vehicle control [4] [%]	suppression of cell migration vs vehicle control [4] [%]	reduction of tumor mass vs tumor control [5] [%]	IC50 [6, 11] [µM]	IC50 [6, 12] [µM]	IC50 [7] [µM]	IC50 [8] [µM]	IC50 on cell viability, RAW264.7 (normal macrophage) ([2]; 24 h)	fold decrease in IC50 of NO production vs DET [8] [fold]
C=C(C)C(=O)O[C@H]1CC2=C[C@@H](C/C(C)=C/[C@H]3OC(=O)C(=C)[C@H]13)OC2=O [DET, deoxyelephantopin, reference compound]	> 10	> 10	0.9	> 10	0.51	~6	6	77	16	47.5	2.3	2.6	0.4	2.9		
C=C1C(=O)O[C@H]2CC3=C[C@@H](C/C(C)=C/[C@@H](OC(=O)Cc4cccc5ccccc45)[C@H]12)OC3=O [DETD-35]		3.9	0.34	> 10	0.26	2.7	2.7	84	10	70.5	1.7	1.7	0.34	1.5	no detected toxicity	2
